Measured values as given in patent publication US20200223826A1, “Glucose-6-Phosphate Dehydrogenase (G6PD)-Modulating Agents And Methods Of Treating G6PD Deficiency” (The Board of Trustees of the Leland Stanford Junior …, priority 2017, published 2020).

Key:
[1] = molecular target: aldehyde dehydrogenase 3A1 (ALDH3A1) (Homo sapiens, UniProt P30838); experiment: Selectivity: dimerization or activity of other NAD/NADP+-dependent enzymes; format: biochemical
D181A G6PD = molecular target: T1, D181A G6PD (Homo sapiens, UniProt P11413, D181A); experiment: Canton-mimicking mutant: activity and proteolytic stability; format: biochemical
T1 construct: His (pET-28a) (N, cleaved yes); made in house; host or cells: E. coli C43 (DE3)
Description: (§1) Enzyme activity was measured by monitoring NADPH production, which was coupled with diaphorase converting resazurin to fluorescent resorufin (excitation at 565 nm and emission at 590 nm); fluorescent signal was thus proportional to G6PD activity. Assays were performed at 25° C. and run for 5 minutes in buffer containing 50 mM Tris (pH 7.4), 0.5 mM EDTA, 3.3 mM MgCl2, 1 U/ml diaphorase, 0.1 mM resazurin. 10 ng of recombinant enzymes or 10 μg of cell lysates was used for the assay with 10 μM NADP^+ (Sigma) as cofactor and 100 μM G6P (Sigma) as substrate. Steady-state kinetic parameters were obtained by varying concentrations of NADP^+ (0-10 μM) with a constant concentration of G6P (100 μM) and similarly for G6P (0-100 μM) with a constant concentration of NADP^+ (10 μM) with 10 ng of recombinant enzymes. Data analysis was performed using GraphPad Prism software v.6 (GraphPad Software, La Jolla, Calif. USA). Kinetic parameters were obtained by fitting the data to the Michaelis-Menten equation.
(§2) 200 ng of recombinant enzymes were incubated with 1 μL of 10 ng/μL chymotrypsin for 1 hour at room temperature. 100 μM of the compound was added to some reaction conditions. The following protein level was examined by Western blot.

N185A G6PD = molecular target: T2, N185A G6PD (Homo sapiens, UniProt P11413, N185A); experiment: as above; format: biochemical
T2 construct: His (pET-28a) (N, cleaved yes); made in house; host or cells: E. coli C43 (DE3)
Description: as §1, §2

SH-SY5Y cells = experiment: Cell viability assay, SH-SY5Y cells, with and without G6PD siRNA knockdown; format: cell-based, human
Description: Cell viability was measured using a Cell-Counting Kit-8 (CCK-8, Dojindo), utilizing WST-8 [2-(2-methoxy-4-nitrophenyl)-3-(4-nitrophenyl)-5-(2,4-disulfophenyl)-2H-tetrazolium monosodium salt, according to the manufacturer's instructions. Cells were subjected to serum starvation for 48 hours before measurement. Cells in 100 μL of medium per well were treated with 10 μL of CCK-8 solution and incubated for 2 hours at 37° C. The absorbance was read at 450 nm. Viability of lymphocytes was measured by staining with a 0.4% solution of trypan blue in buffered isotonic salt solution (pH 7.2). The viability was calculated as the number of viable cells (non-stained by the dye) divided by the total number of cells within the grids on the hemacytometer. Cells were treated with 1 μM of the compound 24 hours before the measurement.
Endogenous G6PD was knocked down in each cell line as follows; 2 pmol of siRNA G6PD (Santa Cruz Biotechnology) and 0.5 μg lipofectamine (Invitrogen) were diluted in 10 μL of Opti-MEM medium respectively and incubated for 5 minutes. The diluted siRNA was combined with diluted lipofectamine, which was followed by additional incubation for 20 minutes prior to the addition to cells in a 96-well plate.

[2] = molecular target: T3, Canton G6PD in lymphocytes carrying the Canton variant (Homo sapiens, UniProt P11413, R459L); experiment: Cycloheximide chase assay in lymphocytes; format: cell-based; details: 1 μM; 24 hours following cycloheximide treatment
T3 construct: host or cells: lymphocytes from a G6PD-deficient subject
Description: (§3) Lymphocytes derived from a normal subject (HG 00866) and a G6PD-deficient subject carrying Canton variant in G6PD (HG 02367) were purchased from Coriell Institute and cultured in RPMI 1640 supplemented with 15% fetal bovine serum (FBS), 100 U/ml penicillin, and 100 μg/ml streptomycin. An SH-SY5Y neuroblastoma cell line was cultured in Dulbecco's Modification of Eagle's Medium/Ham's F-12 50/50 Mix supplemented with 10% FBS, 100 U/ml penicillin, and 100 μg/ml streptomycin. A G6PD-deficient subject-derived fibroblast cell line carrying Mediterranean variant and normal fibroblast cell line as control were purchased from Coriell Institute (GM 01152) and ThermoFisher Scientific (C0135C), respectively, and cultured in minimum essential medium supplemented with 15% FBS, 100 U/ml penicillin, and 100 μg/ml streptomycin. All the cell lines were maintained at 37° C. in a humidified incubator with an atmosphere of 5% of CO2 and 95% air.
(§4) 50,000 cells (SH-SH5Y cells or fibroblast cells) or 100,000 cells (lymphocytes) were seeded in a 12-well plate and incubated overnight. The cells were subjected to serum starvation (50-75%) for 48 hours and treated with 50 μg/ml of cycloheximide at different time points (0-48 hours). The cells were treated with the compound (1 μM) for 48 hours together with cycloheximide. […]

[3] = molecular target: T4, G6PD in lymphocyte lysates carrying the Canton variant (Homo sapiens, UniProt P11413, R459L); experiment: G6PD activity in lymphocyte lysates; format: cell-based; details: in the presence of AG1
T4 construct: host or cells: lymphocytes from a G6PD-deficient subject
Description: as §3
Enzyme activity was measured by monitoring NADPH production, which was coupled with diaphorase converting resazurin to fluorescent resorufin (excitation at 565 nm and emission at 590 nm); fluorescent signal was thus proportional to G6PD activity. Assays were performed at 25° C. and run for 5 minutes in buffer containing 50 mM Tris (pH 7.4), 0.5 mM EDTA, 3.3 mM MgCl2, 1 U/ml diaphorase, 0.1 mM resazurin. […]

[4] = molecular target: T5, Canton G6PD in SH-SY5Y cells (Homo sapiens, UniProt P11413, R459L); experiment: Stability of Canton G6PD in SH-SY5Y cells; format: cell-based
T5 construct: expressed in transfected cells; host or cells: SH-SY5Y neuroblastoma cells
Description: Prior to the cellular-based assays using SH-SH5Y cells, duration of overexpression of WT G6PD and Canton variant was examined by transfecting the cells seeded in a 12-well plate. The genes encoding human WT G6PD and Canton variant were first PCR-amplified, which was then inserted into pcDNA 3.1/myc-His C (ThermoFisher Scientific) using HindIII and XhoI. 0.5 μg of cDNA and 1.5 μg of lipofectamine (Invitrogen) were diluted in 50 μL of Opti-MEM medium respectively and incubated for 5 minutes. The diluted DNA was combined with diluted lipofectamine, which was followed by incubation for 20 minutes prior to the addition to cells.
The transfected cells were collected at different time points (up to 72 hours) and the overexpressed G6PD levels were examined by Western blot. The transfection was carried out in serum-starved cells. Once the duration of expression was confirmed, other cellular-based assays were performed.
as §4

T2 sequence (P11413 whole entry N185A): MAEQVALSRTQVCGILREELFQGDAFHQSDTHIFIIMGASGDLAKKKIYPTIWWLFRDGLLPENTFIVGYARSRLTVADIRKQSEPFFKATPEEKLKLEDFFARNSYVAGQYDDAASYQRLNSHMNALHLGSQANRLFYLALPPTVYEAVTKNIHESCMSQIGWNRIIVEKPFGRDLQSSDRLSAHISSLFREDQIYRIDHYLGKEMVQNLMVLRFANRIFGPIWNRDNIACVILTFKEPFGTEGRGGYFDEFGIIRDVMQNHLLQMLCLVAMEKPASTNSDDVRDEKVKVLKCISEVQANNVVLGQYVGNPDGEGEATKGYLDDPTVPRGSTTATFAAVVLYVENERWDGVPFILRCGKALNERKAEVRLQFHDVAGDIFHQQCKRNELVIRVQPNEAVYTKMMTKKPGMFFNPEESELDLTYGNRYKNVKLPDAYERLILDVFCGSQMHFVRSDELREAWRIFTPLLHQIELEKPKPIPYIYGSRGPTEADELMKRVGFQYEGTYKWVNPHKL
T1 sequence (P11413 whole entry D181A): as the sequence (P11413 whole entry N185A) above, with D181A, A185N counted along it
Sequence of aldehyde dehydrogenase 3A1 (ALDH3A1) (P30838 whole entry, species assumed): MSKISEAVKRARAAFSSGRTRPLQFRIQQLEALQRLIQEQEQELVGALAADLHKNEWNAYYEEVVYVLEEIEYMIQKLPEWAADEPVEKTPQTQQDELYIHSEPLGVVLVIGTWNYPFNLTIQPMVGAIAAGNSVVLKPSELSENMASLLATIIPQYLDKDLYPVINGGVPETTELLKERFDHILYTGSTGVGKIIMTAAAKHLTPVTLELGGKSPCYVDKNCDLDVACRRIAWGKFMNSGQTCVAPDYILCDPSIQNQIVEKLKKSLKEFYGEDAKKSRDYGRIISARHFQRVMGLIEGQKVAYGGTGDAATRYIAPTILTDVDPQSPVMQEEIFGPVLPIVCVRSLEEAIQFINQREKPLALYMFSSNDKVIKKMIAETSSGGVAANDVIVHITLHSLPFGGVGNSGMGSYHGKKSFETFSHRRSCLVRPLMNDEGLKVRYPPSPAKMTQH
T4 sequence (P11413 2-515 R459L limits assumed): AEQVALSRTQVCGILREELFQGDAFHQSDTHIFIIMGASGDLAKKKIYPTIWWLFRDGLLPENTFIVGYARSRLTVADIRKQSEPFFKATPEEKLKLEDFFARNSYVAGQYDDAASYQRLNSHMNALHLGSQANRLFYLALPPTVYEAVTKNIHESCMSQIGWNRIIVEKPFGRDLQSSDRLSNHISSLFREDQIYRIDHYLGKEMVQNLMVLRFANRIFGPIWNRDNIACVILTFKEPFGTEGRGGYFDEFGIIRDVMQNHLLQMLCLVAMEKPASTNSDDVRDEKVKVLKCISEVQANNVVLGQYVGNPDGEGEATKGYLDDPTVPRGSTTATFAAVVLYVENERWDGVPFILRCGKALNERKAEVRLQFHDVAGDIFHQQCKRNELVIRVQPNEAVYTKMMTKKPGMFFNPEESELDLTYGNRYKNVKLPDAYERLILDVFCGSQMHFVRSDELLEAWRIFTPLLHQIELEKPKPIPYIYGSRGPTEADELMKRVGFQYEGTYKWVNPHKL
T3 sequence (P11413 2-515 R459L limits assumed): as above
T5 sequence (P11413 whole entry R459L): as the sequence (P11413 whole entry N185A) above, with A185N, R459L counted along it

SCCNCCc1c[nH]c2ccccc12 [AG1, 2-[2-(1H-indol-3-yl)ethylamino]ethanethiol]
effect on dimerization or activity [1]: no effect | activity and proteolytic stability (D181A G6PD): increased activity and proteolytic stability | activity and proteolytic stability (N185A G6PD): increased activity and proteolytic stability | increase of viability of SH-SY5Y cells (SH-SY5Y cells; 1 μM of AG1): 20% | effect on viability of SH-SY5Y cells (SH-SY5Y cells; G6PD knocked down by siRNA): no effect | level of Canton protein, higher relative to vehicle treatment [2]: 48% | enhancement of enzymatic activity in lymphocyte lysates [3]: 78% | stability of Canton G6PD [4]: increased
